Results as given in patent publication US20160106723A1, “METHODS TO SENSE AND TREAT SUBCLINICAL SKIN DAMAGE” (priority 2014, published 2016).

What was measured:
[1] = system: subclinical skin damage in unblemished skin; assay: Topical treatment of unblemished skin of participants, observed skin reaction (photographs); assay type: in vivo, human; conditions: participant
Excerpt: The response of sun or UV damaged cells to Imiquimod in these non-suspicious areas are indicative of altered cells. Clearly subclinical skin damage or AK may exist in the skin but may not be clinically evident in their early development as appearing in FIGS. 1A, 2A, 3A, 4A, 5A, 6A, and 7A.
The detailed method of treatment of subclinical skin damage and of inducing an immune cell response in unblemished skin involves topical application of formulation essentially comprising Imiquimod in an effective amount during a cycle of therapy that is in the range of two to four weeks; and observing the skin for the response; wherein the composition is administered once or twice daily during the cycle of therapy, which is repeated at least once on a substantially annual basis.

normal human skin = conditions: cited from earlier work

## CC(C)Cn1cnc2c(N)nc3ccccc3c21 [Imiquimod]
[1]; FIG. 1B, chest region, 11 days of treatment, strength about 3.75%
  skin reaction after treatment: severe erythema
[1]; FIG. 2B, chest region, fourteen days of treatment, strength about 5.00%
  skin reaction after treatment: moderate erythema
[1]; FIG. 3B, chest region, fourteen days of treatment, strength about 3.75%
  skin reaction after treatment: moderate erythema
[1]; FIG. 5B, forehead region, fifteen days of treatment, strength about 3.75%
  skin reaction after treatment: moderate reaction
[1]; FIG. 6B, scalp region, ten days of treatment, strength about 2.5%
  skin reaction after treatment: moderate reaction
[1]; FIG. 7B, cheek region, fourteen days of treatment, strength about 2.5%
  skin reaction after treatment: moderate reaction
[1]; FIG. 8A, cheek region, fourteen days of treatment, strength about 2.5%
  skin reaction after treatment: moderate reaction
[1]; FIG. 8B and 8C, forehead region, fourteen days of treatment, strength about 2.5%
  skin reaction after treatment: moderate reaction
[1]; FIGS. 4B and 4C, cheek region, twelve days of treatment, strength about 2.5%
  skin reaction after treatment: mild reaction
Normal human skin
  effect on IL-10 production: reduced IL-10 production
  effect on resident T cells: induced activation of resident T cells
